Laboratory results from a compilation of properties of binary mixtures (doi:10.1016/j.molliq.2017.08.056).
Several values for one entry are separate records, joined by “and”; a condition that tells them apart may be missing. Equal entries are not always repeated.

Experiment: xn = mol fraction of the nth substance listed
Details: 101 kPa

`O` + CCCC[n+]1ccn(C)c1.[Br-] showed an electrical conductivity (288.15 K, x2 = 0) of 0.0001 S/m, a viscosity (288.15 K, x2 = 0) of 1.133 mPa·s and an electrical conductivity (298.15 K, x2 = 0) of 0.0001 S/m. For the same molecule, the electrical conductivity (308.15 K, x2 = 0) was 0.0002 S/m.
In the case of `CCCC[n+]1ccn(C)c1.[Br-]` + O, the electrical conductivity (288.15 K, x1 = 0.0001) is reported as 0.0311 S/m and 0.0454 S/m and 0.0612 S/m, the electrical conductivity (298.15 K, x1 = 0.0001) is reported as 0.0389 S/m and 0.0568 S/m and 0.0759 S/m and the viscosity (298.15 K, x1 = 0.0001) is reported as 0.892 mPa·s and 0.894 mPa·s. It also gave an electrical conductivity (308.15 K, x1 = 0.0001) of 0.069 S/m and a viscosity (308.15 K, x1 = 0.0001) of 0.731 mPa·s.
